For series [1] the following is noted: standard compounds with known logP values described in JIS 7260-117:2006, used for calibration curve; cited from earlier work.

Where two headings read alike, the source gives them in different places.

One may read the logP as a log measure of how a compound divides between an organic and an aqueous phase. Regarding `CC(=O)Nc1ccccc1` [Acetanilide], the logP in series [1] was 1.0.
By chromatographic logP is commonly meant lipophilicity estimated from chromatographic retention. The low end stands for a more hydrophilic compound, the high end for a more lipophilic compound. For the compound `C=CC(=O)OCCCCCCOc1ccc(C(=O)Oc2ccc(/C=N/N=C/c3ccc(OC(=O)c4ccc(OCCCCCCOC(=O)C=C)cc4)c(C(=O)OC)c3)cc2)cc1` [Example X1], the chromatographic logP in “physchem” (hplc) amounted to 6.01.
`C=CC(=O)OCCOc1ccc(-c2ccc(C#N)cc2)cc1` [Example X2] yielded a chromatographic logP in “physchem” of 1.75.
For `C=CC(=O)OCCCCOC(=O)Oc1ccc(C(=O)Oc2ccc(C(=O)O[C@H]3CO[C@@H]4[C@H]3OC[C@H]4OC(=O)c3ccc(OC(=O)c4ccc(OC(=O)OCCCCOC(=O)C=C)cc4)cc3)cc2)cc1` [Example X3], the chromatographic logP in the series “physchem” was determined as 3.58.
`C=CC(=O)OCCCCCCCCOC(=O)Oc1ccc(C(=O)Oc2ccc(OC(=O)c3ccc(OC(=O)OCCCCCCCCOC(=O)C=C)cc3)c(C)c2)cc1` [Example X4] displayed a chromatographic logP in “physchem” of 5.11.
With `c1ccc(N(c2ccccc2)c2ccccc2)cc1` [Triphenylamine], the logP in series [1] is on record as 5.7.

These data come from patent EP4292827A1, “INK COMPOSITION, ARTICLE, AND PRODUCTION METHOD THEREFOR” (Zeon Corporation, priority 2021, dated 2022).
